Test results reported in patent US20090004185A1, “AMINO-SUBSTITUTED QUINAZOLINE DERIVATIVES AS INHIBITORS OF BETA-CATENIN/TCF-4 PATHWAY AND CANCER TREATMENT AGENTS” (WYETH, priority 2007, published 2009).

Assays:
β-catenin/Tcf-4 = assay: cells; type: cell-based; settings: 24 hours of incubation with compound, ratio Firefly/Renilla luciferase
In short: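 SW480-derived lines with integrated reporters (Tcf-4-driven firefly luciferase; SV40 firefly as specificity control; SV40 Renilla for cell number/toxicity), treated 24 hours with titrated compounds, final 0.316% DMSO. Dual-luciferase read-out; firefly/Renilla ratio as % of control, duplicate plates, IC50 (nM) from curve fit.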

SV40-Luc = SV40-Luc control luciferase reporter assay, SV 5A8 cell line (SV40-Luc and SV40-R-Luc), control for non-specific inhibitors; type: cell-based, human; settings: SV 5A8 cells derived from SW480, 24 hours of incubation with compound, ratio Firefly/Renilla luciferase
In short: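 SW480-derived lines with integrated reporters: SV 5A8 (SV40 firefly plus SV40 Renilla), Tcf 33.13 and Tcf 22C11 (Tcf-4 firefly plus SV40 Renilla). Cells seeded 1×10^4/well, compounds added 20-24 h later at titrated concentrations (final DMSO 0.316%) for 24 h. Firefly/Renilla ratio, as % of control, gave IC50 (nM).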

[1] = Homo sapiens, SW480, 24 h, Tcf 33.13 cells derived from SW480
[2] = Homo sapiens, Tcf22C11, 24 h, Tcf 22C11 cells derived from SW480
[3] = Tcf 22C11 cells derived from SW480
[4] = Tcf 33.13 cells derived from SW480

IC50 (β-catenin/Tcf-4; [1])	IC50 (β-catenin/Tcf-4; [2])	IC50 (SV40-Luc; Homo sapiens, SV5A8, 24 h)	IC50 (β-catenin/Tcf-4; [3])	IC50 (β-catenin/Tcf-4; [4])	IC50 (SV40-Luc)	Structure (SMILES)
400 nM	530 nM	> 4620 nM	–	–	–	CN(C)c1nc(NCc2ccc(NC(=O)c3ccc(F)cc3)cc2)c2cc(I)ccc2n1 [Example 68, N-[4-({[2-(dimethylamino)-6-iodoquinazolin-4-yl]amino}methyl)phenyl]-4-fluorobenzamide]
2960 nM	> 2410 nM	> 19200 nM	–	–	–	CN(C)c1nc(NCc2ccc(NC(=O)c3ccc(F)cc3)cc2)c2ccc(-c3ccccc3C=O)cc2n1 [Example 98, N-[4-({[2-(dimethylamino)-7-(2-formylphenyl)quinazolin-4-yl]amino}methyl)phenyl]-4-fluorobenzamide]
2340 nM	2990 nM	> 11200 nM	–	–	–	CN(C)c1nc(NCc2ccc(NC(=O)c3ccc(F)cc3)cc2)c2cc(CO)ccc2n1 [Example 71, N-[4-({[2-(dimethylamino)-6-(hydroxymethyl)quinazolin-4-yl]amino}methyl)phenyl]-4-fluorobenzamide]
906 nM	1190 nM	> 8080 nM	–	–	–	Cc1ccc2c(NCc3ccc(NC(=O)C4CCN(Cc5ccncc5)CC4)cc3)nc(N(C)C)nc2c1 [Example 257, N-[4-({[2-(dimethylamino)-7-methylquinazolin-4-yl]amino}methyl)phenyl]-1-(pyridin-4-ylmethyl)piperidine-4-carboxamide]
1280 nM	2810 nM	> 9060 nM	–	–	–	O=C(Nc1ccc(CNc2nc(NCc3ccco3)nc3ccc(C(F)(F)F)cc23)cc1)c1ccc(Cl)cc1 [Example 168, 4-chloro-N-[4-({[2-[(2-furylmethyl)amino]-6-(trifluoromethyl)quinazolin-4-yl]amino}methyl)phenyl]benzamide]
332 nM	568 nM	> 8340 nM	–	–	–	Cc1ccc2c(NCc3ccc(NC(=O)C4CCN(Cc5ccccc5F)CC4)cc3)nc(N(C)C)nc2c1 [Example 252, N-[4-({[2-(dimethylamino)-7-methylquinazolin-4-yl]amino}methyl)phenyl]-1-(2-fluorobenzyl)piperidine-4-carboxamide]
1520 nM	1710 nM	> 10000 nM	–	–	–	CN(C)c1nc(NCc2ccc(NC(=O)c3ccc(Cl)cc3)cc2)c2cc(C(F)(F)F)ccc2n1 [Example 161, 4-chloro-N-[4-({[2-(dimethylamino)-6-(trifluoromethyl)quinazolin-4-yl]amino}methyl)phenyl]benzamide]
–	–	> 11600 nM	1620 nM	2050 nM	–	Cc1ccc2nc(N(C)C)nc(NCc3ccc(NC(=O)c4ccc(F)cc4)cc3)c2c1 [Example 38, N-[4-({[2-(dimethylamino)-6-methylquinazolin-4-yl]amino}methyl)phenyl]-4-fluorobenzamide]
315 nM	464 nM	> 3220 nM	–	–	–	Cc1ccc2c(NCc3ccc(NC(=O)c4ccc(F)cc4)cc3)nc(N3CCN(c4ncccn4)CC3)nc2c1 [Example 216, 4-fluoro-N-[4-({[7-methyl-2-(4-pyrimidin-2-ylpiperazin-1-yl)quinazolin-4-yl]amino}methyl)phenyl]benzamide]
245 nM	266 nM	> 2710 nM	–	–	–	Cc1ccc2nc(N(C)C)nc(NCc3ccc(NC(=O)Nc4ccc(Cl)cc4)cc3)c2c1 [Example 178, N-(4-chlorophenyl)-N′-[4-({[2-(dimethylamino)-6-methylquinazolin-4-yl]amino}methyl)phenyl]urea]
–	–	–	556 nM	425 nM	> 4680 nM	CN(C)c1nc(NCc2ccc(C(=O)Nc3ccc(F)cc3)cc2)c2cc(/C=C/C(C)(C)C)ccc2n1 [Example 176]
2230 nM	3580 nM	> 9770 nM	–	–	–	O=C(Nc1ccc(CNc2nc(N3CCC3)nc3ccc(C(F)(F)F)cc23)cc1)c1ccc(Cl)cc1 [Example 162, N-[4-({[2-azetidin-1-yl-6-(trifluoromethyl)quinazolin-4-yl]amino}methyl)phenyl]-4-chlorobenzamide]
4120 nM	5950 nM	> 22300 nM	–	–	–	CNc1nc(NCc2ccc(NC(=O)c3ccc(Cl)nc3)cc2)c2cc(OC)ccc2n1 [Example 31, 6-chloro-N-[4-({[6-methoxy-2-(methylamino)quinazolin-4-yl]amino}methyl)phenyl]nicotinamide]
12800 nM	12000 nM	> 24100 nM	–	–	–	CNc1nc(NCc2ccc(NC(=O)c3ccccc3F)cc2)c2cc(C)ccc2n1 [Example 47, 2-fluoro-N-[4-({[6-methyl-2-(methylamino)quinazolin-4-yl]amino}methyl)phenyl]benzamide]
754 nM	738 nM	> 9170 nM	–	–	–	Cc1ccc2c(NCc3ccc(NC(=O)C4CCN(Cc5ccccc5)CC4)cc3)nc(N(C)C)nc2c1 [Example 129, 1-benzyl-N-[4-({[2-(dimethylamino)-7-methylquinazolin-4-yl]amino}methyl)phenyl]piperidine-4-carboxamide]
4310 nM	5190 nM	> 8080 nM	–	–	–	O=C(Nc1ccc(CNc2nc(N3CCN(c4ncccn4)CC3)nc3ccc(C(F)(F)F)cc23)cc1)c1ccc(Cl)cc1 [Example 164, 4-chloro-N-[4-({[2-(4-pyrimidin-2-ylpiperazin-1-yl)-6-(trifluoromethyl)quinazolin-4-yl]amino}methyl)phenyl]benzamide]
227 nM	223 nM	> 1400 nM	–	–	–	Cc1ccc2c(NCc3ccc(NC(=O)c4ccc(Cl)cc4)cc3)nc(N(C)C)nc2c1 [Example 196, 4-chloro-N-[4-({[2-(dimethylamino)-7-methyl-quinazolin-4-yl]amino}methyl)phenyl]benzamide]
1820 nM	> 2760 nM	> 2760 nM	–	–	–	CNc1nc(NCc2ccc(NC(=O)c3ccc(Cl)cc3Cl)cc2)c2ccccc2n1 [Example 16, 2,4-dichloro-N-[4-({[2-(methylamino)quinazolin-4-yl]amino}methyl)phenyl]benzamide]
1380 nM	950 nM	> 8060 nM	–	–	–	CN(C)c1nc(NCc2ccc(NC(=O)C3CCN(Cc4ccccc4)CC3)cc2)c2cc(I)ccc2n1 [Example 74, 1-benzyl-N-[4-({[2-(dimethylamino)-6-iodoquinazolin-4-yl]amino}methyl)phenyl]piperidine-4-carboxamide]
829 nM	888 nM	> 5010 nM	–	–	–	Cc1ccc2c(NCc3ccc(NC(=O)c4ccc(F)cc4)cc3)nc(NCCN3CCCC3)nc2c1 [Example 237, 4-fluoro-N-{4-[({7-methyl-2-[(2-pyrrolidin-1-ylethyl)amino]quinazolin-4-yl}amino)methyl]phenyl}benzamide]
904 nM	> 1390 nM	> 1390 nM	–	–	–	CNc1nc(NCc2ccc(NC(=O)c3ccc(F)cc3Cl)cc2)c2cc(C)ccc2n1 [Example 28, 2-chloro-4-fluoro-N-[4-({[6-methyl-2-(methylamino)quinazolin-4-yl]amino}methyl)phenyl]benzamide]
8960 nM	11100 nM	> 10800 nM	–	–	–	Cc1c(F)ccc2c(NCc3ccc(NC(=O)c4ccc(Cl)nc4)cc3)nc(N(C)C)nc12 [Example 64, 6-chloro-N-[4-({[2-(dimethylamino)-7-fluoro-8-methylquinazolin-4-yl]amino}methyl)phenyl]nicotinamide]
2080 nM	2500 nM	4190 nM	–	–	–	Cc1ccc2nc(N(C)Cc3ccccn3)nc(NCc3ccc(NC(=O)c4ccc(F)cc4)cc3)c2c1 [Example 58, 4-fluoro-N-{4-[({6-methyl-2-[methyl(pyridin-2-ylmethyl)amino]quinazolin-4-yl}amino)methyl]phenyl}benzamide]
–	–	–	428 nM	217 nM	> 5820 nM	Cc1ccc2nc(N(C)C)nc(NCc3ccc(NC(=O)c4ccc(F)cc4)cc3)c2c1 [Example 39, N-[4-({[2-(dimethylamino)-6-methylquinazolin-4-yl]amino}methyl)phenyl]-4-fluorobenzamide]
1870 nM	2100 nM	> 5820 nM	–	–	–	CNc1nc(NCc2ccc(NC(=O)c3ccc(F)cc3)cc2)c2cc(C)cc(C)c2n1 [Example 30, N-[4-({[6,8-dimethyl-2-(methylamino)quinazolin-4-yl]amino}methyl)phenyl]-4-fluorobenzamide]
305 nM	462 nM	> 4110 nM	–	–	–	C/C=C\c1ccc2c(NCc3ccc(NC(=O)C4CCN(Cc5ccccc5)CC4)cc3)nc(N(C)C)nc2c1 [Example 153, 1-benzyl-N-{4-[({2-(dimethylamino)-7-[(1Z)-prop-1-en-1-yl]quinazolin-4-yl}amino)methyl]phenyl}piperidine-4-carboxamide]
955 nM	1390 nM	> 17300 nM	–	–	–	Cc1ccc2nc(N3C[C@@H](C)N[C@@H](C)C3)nc(NCc3ccc(NC(=O)C4CCN(Cc5ccccc5)CC4)cc3)c2c1 [Example 78, 1-benzyl-N-{4-[({2-[(3R,5S)-3,5-dimethylpiperazin-1-yl]-6-methylquinazolin-4-yl}amino)methyl]phenyl}piperidine-4-carboxamide]

Structure (SMILES)	IC50 (β-catenin/Tcf-4; [1])	IC50 (β-catenin/Tcf-4; [2])	IC50 (SV40-Luc; Homo sapiens, SV5A8, 24 h)	IC50 (β-catenin/Tcf-4; [3])	IC50 (β-catenin/Tcf-4; [4])	IC50 (SV40-Luc)
Cc1ccc2nc(N3CCN(C)CC3)nc(NCc3ccc(NC(=O)c4ccc(F)cc4)cc3)c2c1 [Example 48, 4-fluoro-N-[4-({[6-methyl-2-(4-methylpiperazin-1-yl)quinazolin-4-yl]amino}methyl)phenyl]benzamide]	> 20600 nM	> 20600 nM	> 20600 nM	–	–	–
